Results from PMC4332545 (ChemMedChem, 2009).

Tests used:
[1] = system: 6 Hz (32 mA) corneal stimulation seizures in CF-1 mice; experiment: 6 Hz partial psychomotor seizure model; type: in vivo; settings: mouse 6 Hz, 30 min after dosing
[2] = system: Frings mouse model of epilepsy; settings: in vivo; cited from earlier work

Row | Compound | Anticonvulsant Assay, icv ED50 [1] [nmol] | Anticonvulsant activity in the Frings mouse model [2]
1 | CC[C@H](C)[C@H](NC(=O)[C@H](Cc1ccc(O)cc1)NC(=O)[C@@H]1CCCN1C(=O)[C@H](CCCNC(=N)N)NC(=O)[C@@H](N)CCCNC(=N)N)C(=O)N[C@@H](CC(C)C)C(=O)O [NT(8–13), H-RRPYIL-OH] | 0.0011 | –
2 | ZSEEGGSNATKKPYIL [Contulakin-G] | – | potent anticonvulsant activity
